Data as given in US6693104B2, “Theobromine with an anti-carcinogenic activity” (Lotte Confectionery Co., Ltd., priority 2001, dated 2004).

What was measured:
WB-F344 cells = assay: Scrape Loading/Dye Transfer (SL/DT) assay: suppression of gap junction channel by H2O2; assay type: cell-based; settings: 200 μM theobromine, 400 μM H2O2, WB-F344 rat liver epithelial cells, Lucifer Yellow, FIG. 1
Experimental: The effect of theobromine on the suppression of gap junction channel induced by H2O2 was examined according to a known method of Scrape Loading/Dye Transfer (SL/DT) assay (Upham, B. L., Kang, K. S., Cho, H. Y., & Trosko, J. E., Carcinogenesis, 18: 37-42, 1997), as further explained below.
WB-F344 cells were used as a liver cell in order to examine its inhibitory effect on the suppression of gap junction channel in liver cells. The above liver cells were cultured in a MEM-media with 10% FBS, added with 100 IU/mL of penicillin and 100 μg/mL of streptomycin, in an incubator at 37° C. with 5% CO2 (Forma Scientific Co., Marjetta, Ohio, USA). The media compositions used in the above culture were purchased from GIBCO BRL (Grand Island, N.Y., USA). Thus cultured liver cells in media were transferred to each 2 mL petri dish (1×10^5 cells/mL) and cultured for 44 hr. Then the above culturing media were replaced with fresh media with various concentrations of theobromine while the control group was also replaced with fresh media only. Four hours after that, the media were treated theobromine with various concentrations 400 μM by H2O2 together while the control group was replaced with fresh medial. […]

HepG2 = assay: 3H thymidine uptake assay, liver cancer cells; assay type: cell-based; settings: HepG2, various concentrations, 72 hr, FIG. 3
Experimental: The inhibitory effect of theobromine on the proliferation of liver cancer cells was examined by using ^3H thymidine uptake assay (Marshall, E. S. et al. European J. Cancer, 30A: 1370-1376, 1994). HepG2 was used as liver cancer cells. The HepG2 liver cancer cells were cultured in RPMI-1640 media with 10% FBS, 100 IU/mL of penicillin and 100 μg/mL of streptomycin, in a 37° C. incubator with 5% CO2 (Forma Scientific Co., Marjetta, Ohio, USA). The media were purchased from GIBCO BRL (Grand Island, N.Y., USA). Thus cultured HepG2 liver cancer cells were transferred to 96 well plates, each of which contains 2×10^4 cells and were added with various concentrations of theobromine obtained from the reference examples 1-3 and were cultured for 72 hr. Six hours prior to recovery of the above cells, each well was added with 1 μCi of ^3H-Thymidine (Sigma, St. Louis, Mo., USA). After completion of the culture, the cells were recovered into a glass fiber filter (Brandel Inc., Gaithersburg, Mass., USA) by using a recovery instrument (Cambridge Scientific Inc., Cambridge, Mass., USA). The incorporation of ^3H-thymidine of recovered cells after combining with 3 mL of scintillation cocktail solution (Wallac, Turku, Finland) was examined in a liquid scintillation counter (Wallac, Turku, Finland). The whole process was repeated three times according to the above method.

SNU1 = assay: 3H thymidine uptake assay, gastric cancer cells; assay type: cell-based; settings: SNU1, various concentrations, FIG. 4
SNUC2A = assay: 3H thymidine uptake assay, colon cancer cells; assay type: cell-based; settings: various concentrations, FIG. 5
[1] = assay type: in vivo; settings: 0.5 g/kg, in DMSO diluted in water, observed for 7 days
Experimental: The toxicity of theobromine of the present invention was performed as follows.

Cn1cnc2c1c(=O)[nH]c(=O)n2C [theobromine]
inhibition of the suppression of gap junction channel by H2O2 (WB-F344 cells): completely inhibit the suppression of gap junction channel
inhibition rate of DNA synthesis of liver cancer cells (HepG2): increased in a dose-dependent manner
inhibition rate of DNA synthesis of gastric cancer cells (SNU1): increased in a dose-dependent manner
inhibition rate of DNA synthesis of colon cancer cells (SNUC2A): increased in a dose-dependent manner
survival [1]: all mice survived
